PMC8179109, “Introducing affinity and selectivity into galectin-targeting nanoparticles with fluorinated glycan ligands” (Chemical Science, 2020)

Biological target: T1, BiGalHexNAcP (Bifidobacterium longum, UniProt A0ACD7UTG9)
T1 construct: gene BLIJ_2251
Assay: one-pot two-enzyme synthesis of disaccharide (reverse phosphorolysis)
Assay type: biochemical
Settings: acceptor; donor galactose 1-phosphate formed in situ by BiGalK; isolated on semi-preparative scale

T1 sequence (A0ACD7UTG9 entry or part of it): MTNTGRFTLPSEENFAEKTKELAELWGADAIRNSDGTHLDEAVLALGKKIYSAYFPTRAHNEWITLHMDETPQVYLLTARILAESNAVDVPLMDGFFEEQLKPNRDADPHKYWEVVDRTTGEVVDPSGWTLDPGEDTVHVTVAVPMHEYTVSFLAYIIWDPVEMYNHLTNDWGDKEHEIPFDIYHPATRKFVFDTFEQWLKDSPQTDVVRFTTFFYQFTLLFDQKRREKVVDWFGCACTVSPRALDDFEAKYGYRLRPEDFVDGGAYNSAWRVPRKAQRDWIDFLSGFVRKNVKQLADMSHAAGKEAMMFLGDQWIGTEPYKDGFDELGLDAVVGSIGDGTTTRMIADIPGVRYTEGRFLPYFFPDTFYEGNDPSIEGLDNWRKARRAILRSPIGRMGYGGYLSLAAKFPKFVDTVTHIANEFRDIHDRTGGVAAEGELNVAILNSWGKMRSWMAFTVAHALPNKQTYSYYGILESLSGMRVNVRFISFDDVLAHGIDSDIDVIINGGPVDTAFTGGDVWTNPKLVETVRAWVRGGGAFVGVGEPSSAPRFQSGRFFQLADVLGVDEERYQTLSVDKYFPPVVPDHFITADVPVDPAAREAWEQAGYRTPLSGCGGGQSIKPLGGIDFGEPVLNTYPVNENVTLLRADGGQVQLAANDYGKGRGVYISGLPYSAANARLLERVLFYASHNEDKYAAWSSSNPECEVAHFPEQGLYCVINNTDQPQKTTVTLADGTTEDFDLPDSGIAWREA

CC(=O)N[C@H]1[C@H](OCCCN=[N+]=[N-])O[C@H](CO)[C@@H](O)[C@@H]1O[C@@H]1O[C@H](CO)[C@H](O)[C@H](O)[C@H]1O [compound 15]
one-pot two-enzyme synthesis of disaccharide (reverse phosphorolysis): Lacto-N-biose and fluorinated derivatives were efficiently synthesized on semi-preparative scale
